Measurements published in the NIST ThermoML archive (doi:10.1016/j.jct.2008.07.008).

Legend:
[1] = refractive index (Na D-line) (dimensionless); conditions: 101.33 kPa, Liquid, Standard Abbe refractometry
[2] = refractive index (Na D-line) (dimensionless); xn = mol fraction of the nth substance listed; conditions: 101 kPa, Liquid, Standard Abbe refractometry

N#Cc1ccccc1 [benzonitrile]
[1]
Conditions	refractive index
277.43 K	1.5321
278.33 K	1.5318
279.49 K	1.5312
280.36 K	1.5307
280.38 K	1.5307
280.86 K	1.5305
281.97 K	1.5299
284.13 K	1.5289

N#Cc1ccccc1 [benzonitrile] + CCCCCCCC
[2]
Conditions	refractive index
280.36 K, x1 = 0.092	1.4104
280.36 K, x1 = 0.244	1.4248
280.36 K, x1 = 0.344	1.4353
280.36 K, x1 = 0.558	1.4613
280.36 K, x1 = 0.644	1.4726
280.36 K, x1 = 0.762	1.4901
280.36 K, x1 = 0.821	1.4996
280.36 K, x1 = 0.927	1.5176
280.36 K, x1 = 1	1.5307
282.93 K, x1 = 0.558	1.4599
283.35 K, x1 = 0.344	1.4339
283.66 K, x1 = 0.558	1.4597
283.67 K, x1 = 0.344	1.4337
284.57 K, x1 = 0.344	1.4333
284.78 K, x1 = 0.558	1.4591
285.65 K, x1 = 0.344	1.4327
285.74 K, x1 = 0.558	1.4586
286.64 K, x1 = 0.558	1.4583
286.73 K, x1 = 0.344	1.4322
287.64 K, x1 = 0.558	1.4578
287.77 K, x1 = 0.344	1.4318
288.61 K, x1 = 0.558	1.4574
288.82 K, x1 = 0.344	1.4313

CCCCCCCC [octane]
[1]
Conditions	refractive index
277.8 K	1.404
279.68 K	1.4032
280.36 K	1.4028
280.51 K	1.4027
281.66 K	1.4021
282.65 K	1.4017
283.88 K	1.4012
284.73 K	1.4007

CCCCCCCC [octane] + N#Cc1ccccc1
Conditions	refractive index
[2], 280.36 K, x2 = 0	1.4028
